Results reported in the kinase profiling compilation of Christmann-Franck et al. (2016).
Each block holds one compound with its values, some of them ahead of it.

How the values were obtained:
[1] = target: MAPK14 (human) (UniProt Q16539); test: radiometric filter-binding kinase assay, Kinaseprofiler; conditions: compound 1.0 µM; ATP 90 µM
[2] = target: STK33 (human) (UniProt Q9BYT3); test: as above; conditions: compound 1.0 µM; ATP 155 µM
[3] = target: WNK3 (human) (UniProt Q9BYP7); test: as above; conditions: compound 1.0 µM; ATP 200 µM
[4] = target: CDK5 CDK5R1 p25 (human) (UniProt Q00535+Q15078); test: as above; conditions: compound 1.0 µM; ATP 15 µM
[5] = target: ERBB4 (human) (UniProt Q15303); test: as above; conditions: compound 1.0 µM; ATP 15 µM
[6] = test system: MAP2K4 (mouse); test: as above; conditions: compound 1.0 µM; accession and sequence are those of the human protein
[7] = target: CSNK1D (human) (UniProt P48730); test: as above; conditions: compound 1.0 µM; ATP 70 µM
[8] = target: FGFR4 (human) (UniProt P22455); test: as above; conditions: compound 1.0 µM; ATP 155 µM
[9] = test system: MAPK14 (human), Q16539 [T106M]; test: as above; conditions: compound 1.0 µM; ATP 90 µM
[10] = target: CDK9 CCNT1 (human) (UniProt O60563+P50750); test: SelectScreen, TR FRET
[11] = target: JAK3 JH1 JH2 (human) (UniProt P52333); test: SelectScreen, TR FRET
[12] = target: CSNK1A1 (human) (UniProt P48729); test: SelectScreen, TR FRET
[13] = target: ERBB2 (human) (UniProt P04626); test: SelectScreen, TR FRET
[14] = target: CHEK1 (human) (UniProt O14757); test: SelectScreen, TR FRET
[15] = target: AURKB (human) (UniProt Q96GD4); test: SelectScreen, TR FRET
AURKB (human), sequence (Q96GD4 whole entry, looked up): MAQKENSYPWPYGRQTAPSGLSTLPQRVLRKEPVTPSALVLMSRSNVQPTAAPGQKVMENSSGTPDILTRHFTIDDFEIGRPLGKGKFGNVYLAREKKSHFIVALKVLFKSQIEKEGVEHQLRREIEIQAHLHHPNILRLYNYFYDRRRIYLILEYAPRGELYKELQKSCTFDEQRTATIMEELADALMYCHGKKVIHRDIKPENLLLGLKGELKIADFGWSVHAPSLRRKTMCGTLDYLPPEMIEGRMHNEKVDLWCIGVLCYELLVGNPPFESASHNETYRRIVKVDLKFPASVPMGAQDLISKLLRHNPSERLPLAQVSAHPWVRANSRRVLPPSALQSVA

[16] = target: RPS6KB1 (human) (UniProt P23443); test: SelectScreen, TR FRET
[17] = target: MAP2K6 (human) (UniProt P52564); test: SelectScreen, TR FRET
MAP2K6 (human), sequence (P52564 whole entry, looked up): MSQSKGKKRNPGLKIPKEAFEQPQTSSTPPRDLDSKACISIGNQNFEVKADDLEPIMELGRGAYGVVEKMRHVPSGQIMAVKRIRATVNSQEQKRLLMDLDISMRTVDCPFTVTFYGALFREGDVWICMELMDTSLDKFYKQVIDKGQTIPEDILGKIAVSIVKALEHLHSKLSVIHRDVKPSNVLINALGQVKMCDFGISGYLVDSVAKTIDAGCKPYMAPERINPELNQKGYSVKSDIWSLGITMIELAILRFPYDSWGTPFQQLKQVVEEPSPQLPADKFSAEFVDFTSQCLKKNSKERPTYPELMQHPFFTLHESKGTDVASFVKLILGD

[18] = target: ITK (human) (UniProt Q08881); test: SelectScreen, TR FRET
[19] = target: IGF1R (human) (UniProt P08069); test: SelectScreen, TR FRET
[20] = target: NEK2 (human) (UniProt P51955); test: SelectScreen, TR FRET
[21] = target: DYRK1A (human) (UniProt Q13627); test: SelectScreen, TR FRET
[22] = target: CHEK2 (human) (UniProt O96017); test: SelectScreen, TR FRET
[23] = target: IKBKB (human) (UniProt O14920); test: SelectScreen, TR FRET
IKBKB (human), sequence (O14920 whole entry, looked up): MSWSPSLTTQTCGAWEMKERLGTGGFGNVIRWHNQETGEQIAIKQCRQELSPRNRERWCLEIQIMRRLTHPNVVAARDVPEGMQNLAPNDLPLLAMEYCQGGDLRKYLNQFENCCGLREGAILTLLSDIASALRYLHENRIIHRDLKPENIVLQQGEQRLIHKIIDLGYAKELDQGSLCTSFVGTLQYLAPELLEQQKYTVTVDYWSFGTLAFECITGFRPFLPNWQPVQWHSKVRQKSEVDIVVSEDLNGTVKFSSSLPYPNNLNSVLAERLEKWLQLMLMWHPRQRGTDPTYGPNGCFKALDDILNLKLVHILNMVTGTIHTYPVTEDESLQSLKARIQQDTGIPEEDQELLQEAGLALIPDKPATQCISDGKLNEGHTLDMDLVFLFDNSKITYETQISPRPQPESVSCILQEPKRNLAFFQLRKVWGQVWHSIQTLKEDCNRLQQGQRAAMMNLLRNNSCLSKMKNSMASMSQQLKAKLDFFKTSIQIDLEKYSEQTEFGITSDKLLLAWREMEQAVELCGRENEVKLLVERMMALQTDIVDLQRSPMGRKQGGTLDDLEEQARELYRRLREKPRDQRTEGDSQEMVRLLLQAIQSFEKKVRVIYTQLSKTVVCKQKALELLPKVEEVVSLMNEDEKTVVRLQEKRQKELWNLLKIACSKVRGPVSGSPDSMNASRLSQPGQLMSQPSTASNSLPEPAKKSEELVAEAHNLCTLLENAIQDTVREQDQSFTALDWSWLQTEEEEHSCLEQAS

[24] = target: ACVR1B (human) (UniProt P36896); test: SelectScreen, TR FRET
[25] = target: SGK1 (human) (UniProt O00141); test: SelectScreen, TR FRET
[26] = target: LRRK2 (human) (UniProt Q5S007); test: SelectScreen, TR FRET
LRRK2 (human), sequence (Q5S007 whole entry, looked up): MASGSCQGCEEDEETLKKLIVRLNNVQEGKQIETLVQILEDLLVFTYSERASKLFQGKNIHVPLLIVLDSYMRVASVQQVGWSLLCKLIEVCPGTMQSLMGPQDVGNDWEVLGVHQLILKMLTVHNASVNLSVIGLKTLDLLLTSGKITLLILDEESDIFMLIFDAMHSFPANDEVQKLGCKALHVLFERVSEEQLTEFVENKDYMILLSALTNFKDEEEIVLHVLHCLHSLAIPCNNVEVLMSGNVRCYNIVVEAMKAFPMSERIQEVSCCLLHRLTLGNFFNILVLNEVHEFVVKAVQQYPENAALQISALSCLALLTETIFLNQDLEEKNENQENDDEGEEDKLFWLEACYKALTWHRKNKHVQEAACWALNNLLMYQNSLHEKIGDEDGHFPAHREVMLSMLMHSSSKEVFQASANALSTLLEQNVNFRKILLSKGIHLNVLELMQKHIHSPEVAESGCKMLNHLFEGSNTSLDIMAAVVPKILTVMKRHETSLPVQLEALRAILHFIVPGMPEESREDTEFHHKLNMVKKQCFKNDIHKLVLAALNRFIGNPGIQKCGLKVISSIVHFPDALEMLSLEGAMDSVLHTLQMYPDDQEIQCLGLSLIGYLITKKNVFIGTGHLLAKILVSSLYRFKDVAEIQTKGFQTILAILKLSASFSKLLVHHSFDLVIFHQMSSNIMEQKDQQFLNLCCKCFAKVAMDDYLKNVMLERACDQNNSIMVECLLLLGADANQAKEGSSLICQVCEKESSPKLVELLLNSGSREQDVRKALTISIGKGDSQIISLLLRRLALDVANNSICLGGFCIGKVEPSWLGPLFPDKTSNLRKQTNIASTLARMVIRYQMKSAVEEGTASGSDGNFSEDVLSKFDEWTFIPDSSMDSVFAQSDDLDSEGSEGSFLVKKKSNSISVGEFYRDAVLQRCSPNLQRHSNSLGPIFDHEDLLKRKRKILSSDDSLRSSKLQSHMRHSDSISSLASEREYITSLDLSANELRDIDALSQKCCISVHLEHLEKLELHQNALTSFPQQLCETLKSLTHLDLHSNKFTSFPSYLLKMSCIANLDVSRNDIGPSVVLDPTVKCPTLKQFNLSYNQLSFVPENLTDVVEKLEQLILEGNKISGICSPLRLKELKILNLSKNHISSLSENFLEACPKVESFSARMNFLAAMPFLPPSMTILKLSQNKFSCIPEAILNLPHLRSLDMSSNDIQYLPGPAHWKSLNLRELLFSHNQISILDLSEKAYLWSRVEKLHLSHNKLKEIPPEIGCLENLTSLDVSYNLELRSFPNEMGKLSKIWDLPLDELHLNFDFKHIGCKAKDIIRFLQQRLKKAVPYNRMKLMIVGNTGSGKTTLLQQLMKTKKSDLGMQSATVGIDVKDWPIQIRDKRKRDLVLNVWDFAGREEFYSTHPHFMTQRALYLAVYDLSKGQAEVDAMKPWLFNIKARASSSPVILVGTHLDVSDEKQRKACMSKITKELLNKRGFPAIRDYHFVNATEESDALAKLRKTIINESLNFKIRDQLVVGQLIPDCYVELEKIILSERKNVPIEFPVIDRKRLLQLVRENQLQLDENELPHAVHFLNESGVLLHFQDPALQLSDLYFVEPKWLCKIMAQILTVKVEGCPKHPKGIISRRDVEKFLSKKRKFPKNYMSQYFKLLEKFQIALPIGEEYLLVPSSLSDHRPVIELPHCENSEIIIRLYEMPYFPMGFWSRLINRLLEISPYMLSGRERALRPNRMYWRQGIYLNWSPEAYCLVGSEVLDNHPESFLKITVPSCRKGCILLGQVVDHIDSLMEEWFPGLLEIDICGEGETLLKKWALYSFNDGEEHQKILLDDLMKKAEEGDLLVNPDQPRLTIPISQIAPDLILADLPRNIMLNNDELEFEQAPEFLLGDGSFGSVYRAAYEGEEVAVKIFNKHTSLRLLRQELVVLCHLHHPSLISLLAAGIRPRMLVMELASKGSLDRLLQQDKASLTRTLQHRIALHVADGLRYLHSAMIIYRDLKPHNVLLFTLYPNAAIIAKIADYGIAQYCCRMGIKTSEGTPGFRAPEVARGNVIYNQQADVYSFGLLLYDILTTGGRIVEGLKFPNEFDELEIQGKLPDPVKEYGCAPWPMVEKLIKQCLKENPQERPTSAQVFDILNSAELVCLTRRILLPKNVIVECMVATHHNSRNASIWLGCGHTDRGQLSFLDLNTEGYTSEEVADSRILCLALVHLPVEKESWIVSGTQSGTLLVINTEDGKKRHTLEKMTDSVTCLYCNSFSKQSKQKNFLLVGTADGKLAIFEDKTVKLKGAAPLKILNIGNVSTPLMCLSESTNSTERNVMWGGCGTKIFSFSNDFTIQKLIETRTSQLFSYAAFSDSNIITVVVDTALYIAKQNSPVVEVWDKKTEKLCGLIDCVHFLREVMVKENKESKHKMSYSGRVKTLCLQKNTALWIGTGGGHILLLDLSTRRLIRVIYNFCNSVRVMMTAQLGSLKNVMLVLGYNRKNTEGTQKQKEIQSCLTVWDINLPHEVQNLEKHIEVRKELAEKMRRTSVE

[27] = target: EGFR (human) (UniProt P00533); test: SelectScreen, TR FRET
[28] = target: BRAF (human) (UniProt P15056); test: SelectScreen, TR FRET
BRAF (human), sequence (P15056 whole entry, looked up): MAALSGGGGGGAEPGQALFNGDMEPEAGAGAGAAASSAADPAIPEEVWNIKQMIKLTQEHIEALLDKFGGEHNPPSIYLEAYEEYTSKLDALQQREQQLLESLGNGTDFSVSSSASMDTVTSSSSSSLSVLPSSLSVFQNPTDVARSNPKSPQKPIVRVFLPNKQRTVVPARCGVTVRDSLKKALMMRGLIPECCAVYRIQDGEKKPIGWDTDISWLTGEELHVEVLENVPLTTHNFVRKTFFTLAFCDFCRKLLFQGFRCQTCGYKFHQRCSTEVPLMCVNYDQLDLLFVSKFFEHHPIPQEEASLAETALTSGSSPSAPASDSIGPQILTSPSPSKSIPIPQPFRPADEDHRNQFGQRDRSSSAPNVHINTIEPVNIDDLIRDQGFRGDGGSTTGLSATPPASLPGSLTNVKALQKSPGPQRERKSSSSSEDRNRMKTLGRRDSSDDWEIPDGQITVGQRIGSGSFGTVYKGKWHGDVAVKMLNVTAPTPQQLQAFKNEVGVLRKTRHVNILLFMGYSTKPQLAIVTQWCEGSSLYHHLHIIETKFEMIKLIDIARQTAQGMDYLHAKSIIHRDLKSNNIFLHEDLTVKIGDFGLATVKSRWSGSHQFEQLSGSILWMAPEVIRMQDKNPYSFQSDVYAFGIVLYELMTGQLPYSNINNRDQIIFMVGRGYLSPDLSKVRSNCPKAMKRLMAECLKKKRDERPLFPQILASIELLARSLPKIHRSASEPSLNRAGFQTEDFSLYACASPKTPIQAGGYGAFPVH

[29] = target: CDC42BPA (human) (UniProt Q5VT25); test: SelectScreen, TR FRET
[30] = target: TSSK1B (human) (UniProt Q9BXA7); test: SelectScreen, TR FRET
TSSK1B (human), sequence (Q9BXA7 whole entry, looked up): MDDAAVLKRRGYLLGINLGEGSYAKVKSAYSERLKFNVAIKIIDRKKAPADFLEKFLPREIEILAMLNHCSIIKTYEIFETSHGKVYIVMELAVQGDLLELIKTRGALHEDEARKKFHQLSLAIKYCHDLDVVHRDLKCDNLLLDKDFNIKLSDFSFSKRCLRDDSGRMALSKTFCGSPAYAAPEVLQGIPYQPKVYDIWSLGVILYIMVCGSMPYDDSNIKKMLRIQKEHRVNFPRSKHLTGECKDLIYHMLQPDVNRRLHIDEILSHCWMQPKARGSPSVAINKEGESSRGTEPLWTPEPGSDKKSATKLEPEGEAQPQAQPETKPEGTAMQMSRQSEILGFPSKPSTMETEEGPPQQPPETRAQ

- residual activity [1]: 124%
- residual activity [2]: 90%
- residual activity [3]: 78%
- residual activity [4]: 88%
- residual activity [5]: 84%
- residual activity [6]: 87%
- residual activity [7]: 98%
- residual activity [8]: 88%
- residual activity [9]: 112%
Compound: CN(C)S(=O)(=O)Nc1ccc2ccc3ncc(-c4cnn(C)c4)cc3c(=O)c2c1

- inhibition ([10]; compound 0.1 µM): 9.4%
- inhibition ([10]; compound 1.0 µM): 4.4%
- inhibition ([10]; compound 10.0 µM): 10.8%
- inhibition ([11]; compound 0.1 µM): 9.3%
- inhibition ([11]; compound 1.0 µM): 6.1%
- inhibition ([11]; compound 10.0 µM): 25.6%
- inhibition ([12]; compound 0.1 µM): 5.1%
- inhibition ([12]; compound 1.0 µM): 4.8%
- inhibition ([12]; compound 10.0 µM): 13.3%
- inhibition ([13]; compound 0.1 µM): -4.3%
- inhibition ([13]; compound 1.0 µM): 2.2%
- inhibition ([13]; compound 10.0 µM): -10.5%
- inhibition ([14]; compound 0.1 µM): 23.2%
- inhibition ([14]; compound 1.0 µM): -1.2%
- inhibition ([14]; compound 10.0 µM): 14.2%
- inhibition ([15]; compound 0.1 µM): 19.7%
- inhibition ([15]; compound 1.0 µM): 51.8%
- inhibition ([15]; compound 10.0 µM): 96.4%
- inhibition ([16]; compound 0.1 µM): 5.5%
- inhibition ([16]; compound 1.0 µM): 19.7%
- inhibition ([16]; compound 10.0 µM): 25.1%
- inhibition ([17]; compound 0.1 µM): 9.7%
- inhibition ([17]; compound 1.0 µM): 9.1%
- inhibition ([17]; compound 10.0 µM): 7.4%
- inhibition ([18]; compound 0.1 µM): 1.8%
- inhibition ([18]; compound 1.0 µM): 3.8%
- inhibition ([18]; compound 10.0 µM): 35.8%
- inhibition ([19]; compound 0.1 µM): 16.4%
- inhibition ([19]; compound 1.0 µM): 15.3%
- inhibition ([19]; compound 10.0 µM): 16.7%
- inhibition ([20]; compound 0.1 µM): 15.7%
- inhibition ([20]; compound 1.0 µM): 9.8%
- inhibition ([20]; compound 10.0 µM): -56.3%
- inhibition ([21]; compound 0.1 µM): 10.7%
- inhibition ([21]; compound 1.0 µM): 33.3%
- inhibition ([21]; compound 10.0 µM): 79%
- inhibition ([22]; compound 0.1 µM): 11.8%
- inhibition ([22]; compound 1.0 µM): 17.1%
- inhibition ([22]; compound 10.0 µM): 43.6%
- inhibition ([23]; compound 0.1 µM): 4.6%
- inhibition ([23]; compound 1.0 µM): 6.6%
- inhibition ([23]; compound 10.0 µM): 8.5%
- inhibition ([24]; compound 0.1 µM): 12.8%
- inhibition ([24]; compound 1.0 µM): 12.6%
- inhibition ([24]; compound 10.0 µM): 10.1%
- inhibition ([25]; compound 0.1 µM): 10.9%
- inhibition ([25]; compound 1.0 µM): 17.4%
- inhibition ([25]; compound 10.0 µM): 49.8%
- inhibition ([26]; compound 0.1 µM): 19.9%
- inhibition ([26]; compound 1.0 µM): 25.4%
- inhibition ([26]; compound 10.0 µM): 54.3%
- inhibition ([27]; compound 0.1 µM): 0.5%
- inhibition ([27]; compound 1.0 µM): 0.6%
- inhibition ([27]; compound 10.0 µM): 7.1%
- inhibition ([28]; compound 0.1 µM): 12.3%
- inhibition ([28]; compound 1.0 µM): 13.5%
- inhibition ([28]; compound 10.0 µM): -0.3%
- inhibition ([29]; compound 0.1 µM): 6.3%
- inhibition ([29]; compound 1.0 µM): 8.7%
- inhibition ([29]; compound 10.0 µM): 8.6%
- inhibition ([30]; compound 0.1 µM): 15.5%
- inhibition ([30]; compound 1.0 µM): 11.4%
- inhibition ([30]; compound 10.0 µM): 24.9%
Compound: Cn1cc(-c2cnc3ccc4ccc(CC(=O)NCc5ccccn5)cc4c(=O)c3c2)cn1
